Laboratory results published in US8575208B2, “Inhibitors of serine proteases” (priority 2007, dated 2013).

Each compound was assayed against T1, HCV NS3 serine protease (UniProt Q9WMX2) (assay: HCV enzymatic assay (HCV NS3 peptide cleavage assays, apparent Ki)). Settings: serine protease activity measured using the HCV Enzyme Assays; Assay No. 1 / Assay No. 2 not given.
T1 construct: fused on or other part: Assay 1: C-terminal hexa-histidine tag
Assay type: biochemical, hepatitis C virus
Method: This assay is a modification of that described by Landro, et al. (Landro J A, Raybuck S A, Luong Y C, O'Malley E T, Harbeson S L, Morgenstern K A, Rao G and Livingston D L. Biochemistry 1997, 36, 9340-9348), and uses a peptide substrate (NS5AB), based on the NS5A/NS5B cleavage site for genotype la HCV. The substrate stock solution (25 mM) was prepared in DMSO containing 0.2 M DTT and stored at −20° C. A synthetic peptide cofactor (KK4A) was used as a substitute for the central core region of NS4A. The reaction was performed in a 96-well microtiter plate format using 25 ηM to 50 ηM HCV NS3 protease domain in buffer containing 50 mM HEPES pH 7.8, 100 mM NaCl, 20% glycerol, 5 mM DTT and 25 μM KK4A. The final DMSO concentration was no greater than 2% v/v. Reactions were quenched by addition of trifluoroacetic acid (TFA) to yield a final concentration of 2.5%.
The SMSY product was separated from substrate and KK4A using a microbore separation method. The instrument used was a Agilent 1100 with a G1322A degasser, either a G1312A binary pump or a G1311A quaternary pump, a G1313A autosampler, a G1316A column thermostated chamber and a G1315A diode array detector. The column was a Phenomenex Jupiter, 5 μm C18, 300 Å, 150×2 mm, P/O 00F-4053-B0, with a flow-rate of 0.2 mL/min. The column thermostat was at 40° C. Mobile phases were HPLC grade H2O/0.1% TFA (solvent A) and HPLC grade CH3CN/0.1% TFA (solvent B). The SMSY product peak was quantitated using the data collected at […].
This assay follows the cleavage of a peptide substrate by full-length hepatitis C viral protein NS3•4A. One of three peptide substrates based on the NS5A/NS5B cleavage site for genotype 1a HCV is used to measure enzyme activity. All substrate stock solutions (25 mM) were prepared in DMSO containing 0.2M DTT and stored at −20° C. A synthetic peptide cofactor (NS4A Peptide) was used to supplement NS4A. Peptide sequences are shown below. The hydrolysis reaction was performed in a 96-well microtiter plate format using 100 ηM to 125 ηM HCV NS3•4A in buffer containing 50 mM HEPES pH 7.8, 100 mM NaCl, 20% glycerol, 5 mM DTT and 25 μM NS4A Peptide. The final DMSO concentration was no greater than 2% v/v. Reactions using NS5AB or NS5AB-EDANS as substrate were quenched by the addition of 10% trifluoroacetic acid (TFA) to yield a final TFA concentration of 2.5%. Reactions using FITC-NS5AB-1 as substrate were quenched by the addition of 0.4M formic acid to yield a final concentration of 0.08M acid.
Enzymatic activity was assessed by separation of substrate and products by reverse phase HPLC. The instrument used was a Agilent 1100 with a G1322A degasser, either a G1312A binary pump or a G1311A quaternary pump, a G1313A autosampler, a G1316A column thermostated chamber, a G1321A fluorescence detector and a G1315A diode array detector. The column thermostat was at 40° C. For substrate NS5AB the column was a Phenomenex Jupiter, 5 μm C18, 300 Å, 150×2 mm, P/O 00F-4053-B0, with a flow-rate of 0.2 mL/min using HPLC grade H2O/0.1% TFA (solvent A) and HPLC grade CH3CN/0.1% TFA (solvent B) as mobile phases. The C-terminal product peak (NH2-SMSY-COOH) was quantitated using the absorbance data collected at 210 ηm. For substrate NS5AB-EDANS the column was a Phenomenex Aqua, 5 μm C18, 125 Å, 50×4.6 mm, P/O 00B-4299-E0, with a flow-rate of 1.0 mL/min using HPLC grade H2O/0.1% TFA (solvent A) and HPLC grade CH3CN/0.1% TFA (solvent B) as mobile phases. The C-terminal product peak (NH2-SMSYT-Asp(EDANS)-KKK-COOH) was quantitated using the fluorescence data collected at 350 ηm excitation/490 ηm emission. For substrate FITC-NS5AB-1 the column was a Phenomenex Prodigy, 5 μm ODS(2), 125 Å, 50×4.6 mm, P/O 00B-3300-E0, with a flow-rate of 1.0 mL/min using 10 mM sodium phosphate pH 7.0 in HPLC grade H2O (solvent A) and 65% HPLC Grade CH3CN/35% 10 mM sodium phosphate pH 7.0 in HPLC grade H2O (solvent B) as mobile phases. […]

T1 sequence (Q9WMX2 1027-1657): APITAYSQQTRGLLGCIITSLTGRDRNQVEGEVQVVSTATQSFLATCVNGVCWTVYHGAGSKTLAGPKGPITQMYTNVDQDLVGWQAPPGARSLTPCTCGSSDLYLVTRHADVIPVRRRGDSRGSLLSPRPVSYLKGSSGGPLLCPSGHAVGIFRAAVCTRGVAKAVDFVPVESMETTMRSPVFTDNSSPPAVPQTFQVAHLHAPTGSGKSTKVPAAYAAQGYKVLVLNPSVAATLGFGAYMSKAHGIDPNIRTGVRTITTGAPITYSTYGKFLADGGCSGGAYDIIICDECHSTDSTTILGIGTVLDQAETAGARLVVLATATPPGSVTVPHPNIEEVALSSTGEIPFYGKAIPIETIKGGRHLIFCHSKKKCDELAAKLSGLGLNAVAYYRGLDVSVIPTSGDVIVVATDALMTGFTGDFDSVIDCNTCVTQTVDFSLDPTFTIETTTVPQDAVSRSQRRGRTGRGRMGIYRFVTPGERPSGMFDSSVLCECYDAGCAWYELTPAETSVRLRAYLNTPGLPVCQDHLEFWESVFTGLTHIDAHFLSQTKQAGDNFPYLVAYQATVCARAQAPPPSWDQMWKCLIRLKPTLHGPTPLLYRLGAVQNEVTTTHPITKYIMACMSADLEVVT

Compared with `CCC[C@H](NC(=O)[C@@H]1C[C@@]2(CN(c3cccc(Cl)c3)C(=O)O2)CN1C(=O)[C@@H](NC(=O)OC1CCCC1)C(C)(C)C)C(=O)C(=O)NC1CC1` [compound 7, Cyclopentyl (S)-1-((5S,8S)-3-(3-chlorophenyl)-8-((S)-1-(cyclopropylamino)-1,2-dioxohexan-3-ylcarbamoyl)-2-oxo-1-oxa-3,7-diazaspiro[4.4]nonan-7-yl)-3,3-dimethyl-1-oxobutan-2-ylcarbamate], `CCC[C@H](NC(=O)[C@@H]1C[C@@]2(CC(=O)N(c3ccccc3)C2)CN1C(=O)[C@@H](NC(=O)OC1CCCC1)C(C)(C)C)C(=O)C(=O)NC1CC1` [compound 1, Cyclopentyl-(S)-1-((3S,5R)-3-((S)-1-(cyclopropylamino)-1,2-dioxohexan-3-ylcarbamoyl)-8-oxo-7-phenyl-2,7-diazaspiro[4.4]nonan-2-yl)-3,3-dimethyl-1-oxobutan-2-ylcarbamate] is higher in Ki: less than 410 nM for the first, 410 to 700 nM for the second.

First: CCC[C@H](NC(=O)[C@@H]1C[C@]2(CN(c3ccccc3)C(=O)O2)CN1C(=O)[C@@H](NC(=O)CC1CCCCC1)C(C)(C)C)C(=O)C(=O)NC1CC1 [compound 5, (5R,8S)-7-((S)-2-(2-cyclohexylacetamido)-3,3-dimethylbutanoyl)-N-((S)-1-(cyclopropylamino)-1,2-dioxohexan-3-yl)-2-oxo-3-phenyl-1-oxa-3,7-diazaspiro[4.4]nonane-8-carboxamide]
Second: CCC[C@H](NC(=O)[C@@H]1C[C@]2(CC(=O)N(c3cccc(Cl)c3)C2)CN1C(=O)[C@@H](NC(=O)CC1CCCCC1)C(C)(C)C)C(=O)C(=O)NC1CC1 [compound 6]
The Ki of the first is higher: greater than 700 nM for the first, 410 to 700 nM for the second. The second binds more tightly here.

Compared with `CCC[C@H](NC(=O)[C@@H]1C[C@@]2(CC(=O)N(c3cccc(Cl)c3)C2)CN1C(=O)[C@@H](NC(=O)CC1CCCCC1)C(C)(C)C)C(=O)C(=O)NC1CC1` [compound 2], `CCC[C@H](NC(=O)[C@@H]1C[C@]2(CC(=O)N(c3ccccc3)C2)CN1C(=O)[C@@H](NC(=O)OC1CCCC1)C(C)(C)C)C(=O)C(=O)NC1CC1` [compound 4, cyclopentyl (S)-1-((3S,5S)-3-((S)-1-(cyclopropylamino)-1,2-dioxohexan-3-ylcarbamoyl)-8-oxo-7-phenyl-2,7-diazaspiro[4.4]nonan-2-yl)-3,3-dimethyl-1-oxobutan-2-ylcarbamate] is lower in Ki: greater than 700 nM for the first, less than 410 nM for the second. The second binds more tightly here.
